{"source": "patent US20080234199A1", "about": "“Chemical Compounds” (Smithkline Beecham Corporation, priority 2005, published 2008)"}
{"smiles": "CCC(=C(c1ccc(O)cc1)c1ccc(O)cc1)c1ccc(OCCO)c(OC)c1", "note": "[Example 27, 4,4′-{2-[4-[(2-hydroxyethyl)oxy]-3-(methyloxy)phenyl]-1-butene-1,1-diyl}diphenol]", "values": [{"measurement": "melting point", "value": "158 to 159", "unit": "°C"}]}
{"smiles": "CCC(=C(c1ccc(O)cc1)c1ccc(O)cc1)c1ccc(/C=C/C(=O)O)cc1", "note": "[Example 1, (2E)-3-{4-[1-ethyl-2,2-bis(4-hydroxyphenyl)ethenyl]phenyl}-2-propenoic acid]", "values": [{"measurement": "melting point", "value": "280 to 281", "unit": "°C"}]}
